Source: PMC5514153, “Targeting PTPRZ inhibits stem cell-like properties and tumorigenicity in glioblastoma cells” (Scientific Reports, 2017)

Tests used:
C6 cells = test: Boyden chamber migration assay, C6 cells; type: cell-based, rat; settings: 3 h
Protocol: Figure 7 Cellular effects of NAZ2329 on the malignant phenotypes of C6 cells. (A) Phosphorylation of paxillin at Tyr-118. C6 cells were incubated with NAZ2329 for the indicated periods. Immunoprecipitated paxillin was analyzed by Western blotting using anti-pY118-paxillin and anti-paxillin. Blots are representative of five independent cultures. […] (B) Cell proliferation assay. C6 cells were incubated for 48 h with NAZ2329 in normal medium containing 2% FBS. […] (C) Boyden chamber assay. Cells were allowed to migrate for 3 h. DAPI-stained nuclei are shown before (total) and after (migrated) the removal of cells remaining in the top chamber. Scale bars, 100 µm. […] (D,E) Sphere formation (D) and SOX2 expression (E). C6 cells were cultured in CSC medium for 7 days with indicated concentrations of NAZ2329. Images are representative of five independent cultures. Scale bars, 100 µm. […] (F) Self-renewal of C6 spheres. C6 spheres were initially developed in CSC medium for 7 days, followed by an incubation with NAZ2329 in CSC medium for 5 days. Images are representative of five independent cultures. Scale bars, 100 µm. […] Full-length blots and gels are presented in Supplementary Fig. S7.
This assay was performed as described previously. […] Cells were allowed to migrate for 3 h, and the number of cells that migrated to the lower surface was counted under a conventional fluorescence microscope.

hPTPRZ1 (D1) = target: T1, hPTPRZ1 (D1) (Homo sapiens, UniProt P23471); test: In vitro PTPase assay (DiFMUP), PTPRZ1 D1 domain; type: biochemical; settings: first PTP domain fragment
T1 construct: human PTPRZ1-D1 (amino acid residues, 1,698-2,000)

PTPN1 F191V = test: Inhibitor sensitivity of point mutant PTPN1 F191V; type: biochemical, human; settings: at 10 µM
From the text: (§1) Figure 5 Structural basis for PTPRZ inhibition of NAZ2329. (A) An enlarged view of the X-ray structure of human PTPRZ1-D1 complexed with NAZ2329 (PDB ID: 5H08) (left), X-ray structure of the apo (open) form of PTPRZ1-D1 (PDB ID: 5AWX, ref. [6], middle) and a computer-modeled structure of the closed form of PTPRZ1-D1 complexed with a competitive inhibitor, SCB4380 (ref. [6], right), are shown. PTPRZ1-D1 is shown as a gray surface representation, in which Cys1933 at the active site and Val-1911 at the bottom of the allosteric pocket are indicated in red and yellow, respectively. Inhibitors are colored according to the atomic species in a stick figure representation as follows: oxygen (red), nitrogen (blue), sulfur (yellow), and carbon (green). The bottom figures show the conformation of the WPD loop (orange) as cartoon representations, in which Asp1901 and Cys1933 are indicated by orange and red spheres, respectively. Side chains of Arg1939 at the active site, Met1902 in the WPD loop, and Val-1911 at the bottom of the allosteric binding area are also shown in the stick representation. (B) LigPlot representation of the NAZ2329 interaction with PTPRZ1-D1. The predicted hydrogen bonds (broken black lines) and residues (red spoked arcs) involved in the hydrophobic interaction are shown. […]

PTPRG V1038F = target: T2, PTPRG V1038F (Homo sapiens, UniProt P23470, V1038F); test: Inhibitor sensitivity of point mutant PTPRG V1038F; type: biochemical; settings: 10 µM, vs wild-type PTPRG
T2 construct: Point mutants of the PTPRZ1-ICR, PTPRG-ICR, and PTPN1 catalytic domain were generated; GST (N); made in house
From the text: as §1

T2 sequence (P23470 763-1445 V1038F limits assumed): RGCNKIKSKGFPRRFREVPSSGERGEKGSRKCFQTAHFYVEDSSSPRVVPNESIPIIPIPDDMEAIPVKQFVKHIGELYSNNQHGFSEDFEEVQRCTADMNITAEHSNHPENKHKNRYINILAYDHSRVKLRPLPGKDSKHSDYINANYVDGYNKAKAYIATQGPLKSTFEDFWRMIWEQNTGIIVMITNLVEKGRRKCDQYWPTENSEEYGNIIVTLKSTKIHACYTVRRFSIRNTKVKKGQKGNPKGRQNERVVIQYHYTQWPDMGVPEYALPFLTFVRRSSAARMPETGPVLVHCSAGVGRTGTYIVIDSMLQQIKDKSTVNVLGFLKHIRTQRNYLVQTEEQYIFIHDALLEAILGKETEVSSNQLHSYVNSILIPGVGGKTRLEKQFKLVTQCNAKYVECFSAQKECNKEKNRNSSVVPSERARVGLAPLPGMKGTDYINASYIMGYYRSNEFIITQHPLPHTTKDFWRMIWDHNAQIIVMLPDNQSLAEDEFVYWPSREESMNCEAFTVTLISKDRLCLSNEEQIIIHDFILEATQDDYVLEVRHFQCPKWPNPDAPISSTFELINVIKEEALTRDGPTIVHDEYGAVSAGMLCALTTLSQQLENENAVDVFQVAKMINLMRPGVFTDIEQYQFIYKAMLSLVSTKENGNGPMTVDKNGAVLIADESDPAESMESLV
T1 sequence (P23471 1698-2000 limits assumed): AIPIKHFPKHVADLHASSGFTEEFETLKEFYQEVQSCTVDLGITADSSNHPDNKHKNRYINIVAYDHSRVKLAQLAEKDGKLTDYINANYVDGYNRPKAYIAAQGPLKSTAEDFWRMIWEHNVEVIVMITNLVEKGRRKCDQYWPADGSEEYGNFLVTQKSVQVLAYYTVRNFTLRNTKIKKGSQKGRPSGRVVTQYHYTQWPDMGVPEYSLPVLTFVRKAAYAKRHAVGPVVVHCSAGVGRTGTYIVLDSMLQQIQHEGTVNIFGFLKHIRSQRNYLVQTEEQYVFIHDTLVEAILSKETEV

IC50 (hPTPRZ1 (D1)): 1100 nM | effect of V1038F mutation on sensitivity to inhibitor (PTPRG V1038F): resulted in resistance
SMILES: CCOc1ccc(C(F)(F)F)cc1CSc1ccsc1C(=O)NS(=O)(=O)c1ccccc1 [NAZ2329]
cell migration (C6 cells): inhibited | change in sensitivity of F191V mutant vs wild-type PTPN1 (more sensitive) (PTPN1 F191V): ~ 2 fold
